Results from US9018260B2, “Indanesulfamide derivatives” (Eisai R&D Management Co., Ltd., priority 2012, dated 2015).

What was measured:
[1] = tested on: corneal kindled male C57Bl/6 mice; experiment: Mouse corneal kindling model; format: in vivo; conditions: for ED50: Mus musculus, dosage where 50% of animals showed seizure severity score 2 or less; for Seizure severity score (Average): Racine's scale
Description: Male C57Bl/6 mice were stimulated twice daily for 10 days. The electric-stimulations with current intensities of 4.0 mA and duration of 3 s (pulse frequency 50 Hz) were applied via corneally placed saline-soaked copper electrodes.
Seizure severity was ranked according to a modified scoring system of the Racine's scale (Clin. Neurophysiol. 1972:32:281-294): Score 1, mild facial clonus and eye blinking; 2, severe facial clonus, head nodding, chewing; 3, unilateral or alternating forelimb clonus; 4, bilateral forelimb clonus with rearing; 5, bilateral forelimb clonus with rearing and falling; 6, tonic fore- and/or hindlimb extension. The fully kindled animals with the severity score 4 or more were used for evaluation.
Test compounds were dissolved in the vehicle (0.45% methyl cellulose/4.5% cremophor/10% DMSO), then orally (p.o.) or intraperitoneally (i.p.) administered to mice. The vehicle was orally administered as controls.
Electric stimulation was applied at 1 hour after p.o. or 20 minutes after i.p administration. Stimulation parameters were the same as during the kindling process. After electric stimulation, seizure severity was recorded for 30 seconds according to the Racine's scale.
Four to ten animals were used for calculation of average seizure severity score at each dose.

male ddY mice [2] = experiment: Rota rod test; format: in vivo, mouse; conditions: route i.p; TD50 in rota rod test divided by ED50 in corneal kindling model
Rota rod test [3] = format: in vivo, mouse; conditions: male, ddY, mouse, in vivo, intraperitoneal; route i.p; dose at which fall off latency shorten by 50% of vehicle control value
[4] = tested on: amygdala kindled male Wistar Kyoto rats; experiment: Rat amygdala kindling model; format: in vivo; conditions: oral, 60 minutes after administration; FIGS. 1 to 3
Method: Male Wistar Kyoto rats (Charles River Japan) were used for the experiment. For implantation of kindling electrodes, rats were anesthetized with pentobarbital (65 mg/kg i.p.) and a tripolar electrode was implanted into the right hemisphere aimed at the basolateral amygdala using the coordinates derived from the atlas of Paxinos and Watson. Electrical stimulation of the amygdala was initiated following a recovery period of one week after surgery. […]
The threshold for induction of amygdala after discharges (ADT), i.e., epileptiform spikes on electroencephalogram (EEG), was measured for anti-seizure potency of compounds. In fully kindled rats, the ADT was determined by administering a series of stimulations beginning at […] and increasing in steps of about 25% of the previous current. […]
In the afternoon, test compounds were dissolved in the vehicle (a 1:1:1 mixture of polyethylene glycol 200, distilled water and DMSO), then orally administered to rats. […] The ADT was determined again 60 minutes after administration of drugs. The % of pre-value (morning results) was determined for each rat. Results were expressed as mean±SEM and analyzed by Dunnett's multiple comparisons test. […]

male ddY mice [5] = experiment: Rota rod test; format: in vivo, mouse; conditions: route p.o.; TD50 in rota rod test divided by ED50 in corneal kindling model
Method: (§1) Rotarod apparatus (Rota-rod MK-660C, Muromachi-Kikai Co., Ltd.) was used for measurement. The motor was turned on and the rod rotation was continuously accelerated to a rate of 40 rpm over 180 sec.
(§2) Male ddY mice at an age of 5 weeks (Japan SLC) were used. On the experiment day, the mice were pretrained and only the animals able to remain on the rod for at least 60 s were selected for experiment.
(§3) Test compounds were dissolved in the vehicle (0.45% methyl cellulose/4.5% cremophor/10% dimethyl sulfoxide), then orally (p.o.) administered to mice. The vehicle was orally administered as controls. The effects of compounds were studied in groups of six to ten animals.
(§4) Latency for mice to fall off from the rod was measured. The toxic dose at which fall off latency shorten by 50% of vehicle control value (TD50) was calculated.
(§5) Therapeutic index were calculated by dividing the respective TD50 value in rota rod test by the ED50 value determined in the corneal kindling model.

Rota rod test [6] = format: in vivo, mouse; conditions: male, ddY, mouse, in vivo, po; dose at which fall off latency shorten by 50% of vehicle control value
Method: as §1, §2, §3, §4, §5

[7] = dose 10 mg/kg, i.p., stimulation 20 minutes after administration
[8] = dose 25 mg/kg, i.p., stimulation 20 minutes after administration
[9] = dose 10 mg/kg, p.o., stimulation 1 hour after administration
[10] = dose 25 mg/kg, p.o., stimulation 1 hour after administration
[11] = dose 50 mg/kg, p.o., stimulation 1 hour after administration

| SMILES | ED50 ([1]; ip, route i.p) [mg/kg] | Seizure severity score (Average) [1, 7] | Seizure severity score (Average) [1, 8] | Therapeutic index (male ddY mice [2]) | TD50 (Rota rod test [3]) [mg/kg] | after-discharge threshold (ADT), % of pre-value [4] | ED50 ([1]; po) [mg/kg] | Seizure severity score (Average) [1, 9] | Seizure severity score (Average) [1, 10] | Therapeutic index (male ddY mice [5]) | TD50 (Rota rod test [6]) [mg/kg] | Seizure severity score (Average) [1, 11] |
| --- | --- | --- | --- | --- | --- | --- | --- | --- | --- | --- | --- | --- |
| NS(=O)(=O)NC1c2c(Cl)cccc2CC1(F)F (single isomer, unassigned; (-)) [Example 8, (−)-N-(7-chloro-2,2-difluoro-2,3-dihydro-1H-inden-1-yl)sulfamide] | 10.6 | 3 | 0 | 11.2 | 119 |  |  |  |  |  |  |  |
| Cc1cccc2c1[C@H](NS(N)(=O)=O)C(F)(F)C2 [Example 11, N-[(1S)-2,2-Difluoro-7-methyl-2,3-dihydro-1H-inden-1-yl]sulfamide] |  |  |  |  |  | dose-dependent elevation of after-discharge threshold | 5 | 0.5 | 0 | 26.4 | 132 |  |
| NS(=O)(=O)NC1CCc2c(F)cc(F)c(F)c21 (single isomer, unassigned; (-)) [Example 29, (−)-N-(4,6,7-trifluoro-2,3-dihydro-1H-inden-1-yl)sulfamide] |  |  |  |  |  |  | 15.8 | 3.5 | 0.83 | 9.93 | 157 | 0 |
| NS(=O)(=O)N[C@H]1CCc2cc(F)cc(Cl)c21 [Example 21, N-[(1S)-7-chloro-5-fluoro-2,3-dihydro-1H-inden-1-yl]sulfamide] |  | 4.25 | 2 |  |  |  | 10.6 |  |  | 22.1 | 234 |  |
| NS(=O)(=O)N[C@H]1CCc2c(F)ccc(F)c21 [Example 19, N-[(1S)-4,7-difluoro-2,3-dihydro-1H-inden-1-yl]sulfamide] |  |  |  |  |  |  | 12.4 | 2 | 0 | 19.0 | 235 |  |
| NS(=O)(=O)NC1c2c(Cl)cc(F)cc2CC1(F)F (single isomer, unassigned; (-)) [Example 6, (−)-N-(7-chloro-2,2,5-trifluoro-2,3-dihydro-1H-inden-1-yl)sulfamide] |  |  |  |  |  | dose-dependent elevation of after-discharge threshold | 10.2 | 1 | 0 | 30.1 | 307 | 0.25 |
| NS(=O)(=O)NC1c2c(ccc(F)c2F)CC1(F)F (single isomer, unassigned; (-)) [Example 5, (−)-N-(2,2,6,7-tetrafluoro-2,3-dihydro-1H-inden-1-yl)sulfamide] |  |  |  |  |  |  | 5.7 | 2 | 0 | 70.9 | 404 |  |
| NS(=O)(=O)N[C@H]1c2c(F)cc(F)cc2CC1(F)F [Example 1, N-[(1S)-2,2,5,7-tetrafluoro-2,3-dihydro-1H-inden-1-yl]sulfamide] |  |  |  |  |  |  | 7.9 | 2 | 0 | 49.4 | 390 | 0 |
